# Test results reported in patent publication US20260092071A1, “COMPOUNDS AND COMPOSITIONS AS SMARCA2/4 DEGRADERS AND USES THEREOF” (REGENTS OF THE UNIVERSITY OF MICHIGAN, priority 2022, published 2026).
# Legend:
# SMARCA2 = SMARCA2 (Homo sapiens, UniProt P51531); test: HiBit assay in engineered HT1080 CRISPR knock-in cell, 6 hrs (B series), SMARCA2; assay type: cell-based; settings: 6 hrs incubation; for DC50: HT1080 CRISPR knock-in cells, read-out: SMARC A2 HT1080 HiBit DC50; for Dmax: HT-1080, HT1080 CRISPR knock-in cells, read-out: SMARC A2 HT1080 HiBit Dmax (%)
# Sequence of SMARCA2 (P51531 whole entry): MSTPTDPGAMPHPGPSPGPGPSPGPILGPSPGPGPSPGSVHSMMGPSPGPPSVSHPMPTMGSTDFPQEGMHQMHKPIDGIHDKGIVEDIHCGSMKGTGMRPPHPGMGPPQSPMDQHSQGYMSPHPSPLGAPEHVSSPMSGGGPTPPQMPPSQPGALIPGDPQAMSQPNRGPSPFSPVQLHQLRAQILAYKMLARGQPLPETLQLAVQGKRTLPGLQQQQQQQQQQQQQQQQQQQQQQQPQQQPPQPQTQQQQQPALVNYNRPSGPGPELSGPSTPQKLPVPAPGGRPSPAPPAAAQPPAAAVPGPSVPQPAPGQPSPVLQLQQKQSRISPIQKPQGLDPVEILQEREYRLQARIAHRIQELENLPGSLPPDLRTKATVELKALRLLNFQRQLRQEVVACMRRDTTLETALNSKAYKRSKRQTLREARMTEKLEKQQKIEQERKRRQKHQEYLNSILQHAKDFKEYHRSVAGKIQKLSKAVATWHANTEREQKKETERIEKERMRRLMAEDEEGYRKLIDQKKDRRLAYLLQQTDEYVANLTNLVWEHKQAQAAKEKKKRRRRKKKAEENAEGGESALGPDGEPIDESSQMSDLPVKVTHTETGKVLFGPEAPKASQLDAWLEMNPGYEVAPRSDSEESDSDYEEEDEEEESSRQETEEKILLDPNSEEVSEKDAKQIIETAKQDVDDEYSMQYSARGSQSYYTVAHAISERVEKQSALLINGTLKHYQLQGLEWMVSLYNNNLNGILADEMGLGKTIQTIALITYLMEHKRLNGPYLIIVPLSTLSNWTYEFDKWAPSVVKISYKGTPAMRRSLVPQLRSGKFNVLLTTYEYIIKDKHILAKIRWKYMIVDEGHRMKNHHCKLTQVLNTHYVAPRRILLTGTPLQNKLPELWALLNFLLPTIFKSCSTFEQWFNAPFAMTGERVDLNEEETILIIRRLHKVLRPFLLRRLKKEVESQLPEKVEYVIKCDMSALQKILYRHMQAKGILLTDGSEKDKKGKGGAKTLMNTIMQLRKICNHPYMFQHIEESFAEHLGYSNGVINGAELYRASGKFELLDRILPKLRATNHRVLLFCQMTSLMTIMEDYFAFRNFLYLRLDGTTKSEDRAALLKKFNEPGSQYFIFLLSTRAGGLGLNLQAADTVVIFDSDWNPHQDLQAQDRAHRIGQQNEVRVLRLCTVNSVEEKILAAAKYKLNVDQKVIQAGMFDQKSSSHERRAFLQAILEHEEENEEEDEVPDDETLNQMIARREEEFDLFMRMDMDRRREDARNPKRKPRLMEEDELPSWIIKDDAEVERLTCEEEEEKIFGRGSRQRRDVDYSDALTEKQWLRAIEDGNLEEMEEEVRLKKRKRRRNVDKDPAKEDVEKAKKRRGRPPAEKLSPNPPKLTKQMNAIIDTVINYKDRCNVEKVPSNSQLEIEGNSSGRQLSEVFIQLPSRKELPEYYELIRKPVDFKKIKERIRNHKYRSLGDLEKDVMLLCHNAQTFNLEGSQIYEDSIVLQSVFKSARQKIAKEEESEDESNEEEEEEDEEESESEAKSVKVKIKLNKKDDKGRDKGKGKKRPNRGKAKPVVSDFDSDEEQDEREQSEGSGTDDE
# Summary of the method: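 Compounds were dispensed first, then HT1080 knock-in cells added and incubated for 6 hrs at 37° C. Next, detection reagent containing LgBiT and lytic substrate was added. Plates were shaken 10 min and centrifuged, and luminescence was measured.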
# SMARCA4 = SMARCA4 (Homo sapiens, UniProt P51532); test: HiBit assay in engineered HT1080 CRISPR knock-in cell, 6 hrs (B series), SMARCA4; assay type: cell-based; settings: 6 hrs incubation; for DC50: HT1080 CRISPR knock-in cells, read-out: SMARC A4 HT1080 HiBit DC50; for Dmax: HT-1080, HT1080 CRISPR knock-in cells, read-out: SMARC A4 HT1080 HiBit Dmax(%)
# Sequence of SMARCA4 (P51532 whole entry): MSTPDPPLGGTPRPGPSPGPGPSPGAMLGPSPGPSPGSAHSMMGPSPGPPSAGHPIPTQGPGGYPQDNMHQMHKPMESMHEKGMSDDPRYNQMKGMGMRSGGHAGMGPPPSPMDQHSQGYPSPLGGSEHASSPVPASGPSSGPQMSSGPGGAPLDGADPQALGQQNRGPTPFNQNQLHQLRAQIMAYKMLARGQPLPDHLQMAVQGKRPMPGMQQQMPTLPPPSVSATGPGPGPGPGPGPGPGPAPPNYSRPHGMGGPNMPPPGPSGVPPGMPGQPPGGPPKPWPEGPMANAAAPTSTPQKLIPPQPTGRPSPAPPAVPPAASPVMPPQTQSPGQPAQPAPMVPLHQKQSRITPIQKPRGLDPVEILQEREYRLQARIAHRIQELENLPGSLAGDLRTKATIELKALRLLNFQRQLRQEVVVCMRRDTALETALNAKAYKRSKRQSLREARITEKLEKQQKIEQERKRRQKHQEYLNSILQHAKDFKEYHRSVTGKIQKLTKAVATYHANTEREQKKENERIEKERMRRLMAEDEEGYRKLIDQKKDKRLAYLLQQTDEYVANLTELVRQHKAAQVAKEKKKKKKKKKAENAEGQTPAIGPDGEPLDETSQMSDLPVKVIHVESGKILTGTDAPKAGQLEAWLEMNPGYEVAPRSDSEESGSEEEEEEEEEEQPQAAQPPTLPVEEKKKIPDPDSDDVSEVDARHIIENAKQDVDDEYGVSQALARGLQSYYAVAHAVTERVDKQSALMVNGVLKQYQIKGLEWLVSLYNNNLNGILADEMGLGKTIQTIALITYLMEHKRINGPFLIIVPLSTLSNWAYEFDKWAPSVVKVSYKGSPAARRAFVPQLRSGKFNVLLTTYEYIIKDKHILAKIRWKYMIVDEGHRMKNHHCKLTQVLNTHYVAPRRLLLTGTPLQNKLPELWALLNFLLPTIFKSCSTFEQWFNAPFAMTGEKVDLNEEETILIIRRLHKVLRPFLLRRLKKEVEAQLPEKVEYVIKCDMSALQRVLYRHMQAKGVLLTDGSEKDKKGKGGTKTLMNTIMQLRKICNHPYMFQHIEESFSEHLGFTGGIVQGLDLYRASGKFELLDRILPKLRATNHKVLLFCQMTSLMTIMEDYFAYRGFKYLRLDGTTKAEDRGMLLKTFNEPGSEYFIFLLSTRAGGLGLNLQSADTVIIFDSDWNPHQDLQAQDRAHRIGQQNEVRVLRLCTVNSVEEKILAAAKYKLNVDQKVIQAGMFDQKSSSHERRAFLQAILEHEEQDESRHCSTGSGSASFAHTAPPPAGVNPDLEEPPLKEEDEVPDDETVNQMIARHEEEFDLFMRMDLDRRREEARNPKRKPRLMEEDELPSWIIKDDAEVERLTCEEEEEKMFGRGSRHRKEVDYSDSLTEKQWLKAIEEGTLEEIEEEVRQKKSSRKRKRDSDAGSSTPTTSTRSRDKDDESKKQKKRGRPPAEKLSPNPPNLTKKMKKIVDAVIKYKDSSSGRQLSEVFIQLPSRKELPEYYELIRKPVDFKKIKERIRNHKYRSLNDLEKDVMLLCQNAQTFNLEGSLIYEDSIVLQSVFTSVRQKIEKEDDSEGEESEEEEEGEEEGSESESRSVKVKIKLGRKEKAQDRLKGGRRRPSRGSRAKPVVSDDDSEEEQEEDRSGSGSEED
# Summary of the method: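 Engineered HT1080 knock-in cells, 2000 cells/well, 6 hrs compound exposure, 37° C/5% CO2, 0.1% DMSO final. Lytic detection: LgBiT 1:100 plus HiBiT substrate 1:50 in lytic buffer, 10 min shake at RT, luminescence read.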
SMILES,DC50 (SMARCA2) [nM],Dmax (SMARCA2) [%],DC50 (SMARCA4) [nM],Dmax (SMARCA4) [%]
"Cc1ncsc1-c1ccc([C@H](C)NC(=O)[C@@H]2C[C@@H](O)CN2C(=O)C(c2cc(N3CCC(c4ccc5c(c4)C(C)(C)c4nc(=O)c6c(Cl)cccc6n4-5)CC3)no2)C(C)C)cc1 (stereo partly drawn) [Compound B42, (2S,4R)-1-(2-(3-(4-(4-chloro-7,7-dimethyl-5-oxo-5,7-dihydroindolo[1,2-a]quinazolin-9-yl)piperidin-1-yl)isoxazol-5-yl)-3-methylbutanoyl)-4-hydroxy-N—((S)-1-(4-(4-methylthiazol-5-yl)phenyl)ethyl)pyrrolidine-2-carboxamide]",< 100,> 90,< 100,70 to 90
"Cc1ncsc1-c1ccc([C@H](C)NC(=O)[C@@H]2C[C@@H](O)CN2C(=O)[C@@H](NC(=O)CCN2CCC(c3ccc4c(c3)-n3c(nc(=O)c5c(Cl)cccc53)C4(C)C)CC2)C(C)(C)C)cc1 [Compound B43, (2S,4R)-1-((S)-2-(3-(4-(4-chloro-7,7-dimethyl-5-oxo-5,7-dihydroindolo[1,2-a]quinazolin-10-yl)piperidin-1-yl)propanamido)-3,3-dimethylbutanoyl)-4-hydroxy-N—((S)-1-(4-(4-methylthiazol-5-yl)phenyl)ethyl)pyrrolidine-2-carboxamide]",100 to 500,50 to 69,> 1000,< 50
"Cc1ncsc1-c1ccc([C@H](CC(=O)NCCN2CCC(c3ccc4c(c3)-n3c(nc(=O)c5c(Cl)cccc53)C4(C)C)CC2)NC(=O)[C@@H]2C[C@@H](O)CN2C(=O)[C@@H](NC(=O)C2(F)CC2)C(C)(C)C)cc1 [Compound B44, (2S,4R)-N-((S)-3-((2-(4-(4-chloro-7,7-dimethyl-5-oxo-5,7-dihydroindolo[1,2-a]quinazolin-10-yl)piperidin-1-yl)ethyl)amino)-1-(4-(4-methylthiazol-5-yl)phenyl)-3-oxopropyl)-1-((S)-2-(1-fluorocyclopropane-1-carboxamido)-3,3-dimethylbutanoyl)-4-hydroxypyrrolidine-2-carboxamide]",100 to 500,< 50,100 to 500,< 50
"Cc1ncsc1-c1ccc([C@H](C)NC(=O)[C@@H]2C[C@@H](O)CN2C(=O)[C@@H](NC(=O)CCCN2CCC(c3ccc4c(c3)-n3c(nc(=O)c5c(Cl)cccc53)C4(C)C)CC2)C(C)(C)C)cc1 [Compound B45, (2S,4R)-1-((S)-2-(4-(4-(4-chloro-7,7-dimethyl-5-oxo-5,7-dihydroindolo[1,2-a]quinazolin-10-yl)piperidin-1-yl)butanamido)-3,3-dimethylbutanoyl)-4-hydroxy-N-((S)-1-(4-(4-methylthiazol-5-yl)phenyl)ethyl)pyrrolidine-2-carboxamide]",100 to 500,70 to 90,> 1000,< 50
"Cc1ncsc1-c1ccc([C@H](CCCCCn2cc(-c3ccc4c(c3)-n3c(nc(=O)c5c(Cl)cccc53)C4(C)C)cn2)NC(=O)[C@@H]2C[C@@H](O)CN2C(=O)[C@@H](NC(=O)C2(F)CC2)C(C)(C)C)cc1 [Compound B46, (2S,4R)-N-((S)-6-(4-(4-chloro-7,7-dimethyl-5-oxo-5,7-dihydroindolo[1,2-a]quinazolin-10-yl)-1H-pyrazol-1-yl)-1-(4-(4-methylthiazol-5-yl)phenyl)hexyl)-1-((S)-2-(1-fluorocyclopropane-1-carboxamido)-3,3-dimethylbutanoyl)-4-hydroxypyrrolidine-2-carboxamide]",< 100,70 to 90,< 100,70 to 90
"Cc1ncsc1-c1ccc([C@H](C)NC(=O)[C@@H]2C[C@@H](O)CN2C(=O)[C@@H](NC(=O)C2CCC(N3CCC(c4ccc5c(c4)-n4c(nc(=O)c6c(Cl)cccc64)C5(C)C)CC3)CC2)C(C)(C)C)cc1 (stereo partly drawn) [Compound B47, (2S,4R)-1-((S)-2-(4-(4-(4-chloro-7,7-dimethyl-5-oxo-5,7-dihydroindolo[1,2-a]quinazolin-10-yl)piperidin-1-yl)cyclohexane-1-carboxamido)-3,3-dimethylbutanoyl)-4-hydroxy-N-((S)-1-(4-(4-methylthiazol-5-yl)phenyl)ethyl)pyrrolidine-2-carboxamide]",100 to 500,70 to 90,100 to 500,< 50
"Cc1ncsc1-c1ccc([C@H](C)NC(=O)[C@@H]2C[C@@H](O)CN2C(=O)[C@@H](NC(=O)[C@H]2CC[C@H](Cn3cc(-c4ccc5c(c4)C(C)(C)c4nc(=O)c6c(Cl)cccc6n4-5)cn3)CC2)C(C)(C)C)cc1 [Compound B48, (2S,4R)-1-((S)-2-((1r,4S)-4-((4-(4-chloro-7,7-dimethyl-5-oxo-5,7-dihydroindolo[1,2-a]quinazolin-9-yl)-1H-pyrazol-1-yl)methyl)cyclohexane-1-carboxamido)-3,3-dimethylbutanoyl)-4-hydroxy-N—((S)-1-(4-(4-methylthiazol-5-yl)phenyl)ethyl)pyrrolidine-2-carboxamide]",< 100,70 to 90,100 to 500,< 50
"Cc1ncsc1-c1ccc([C@H](C)NC(=O)[C@@H]2C[C@@H](O)CN2C(=O)[C@H](C(C)C)n2cc(CN3CCC(c4ccc5c(c4)-n4c(nc(=O)c6c(Cl)cccc64)C5(C)C)CC3)nn2)cc1 [Compound B49, (2S,4R)-1-((S)-2-(4-((4-(4-chloro-7,7-dimethyl-5-oxo-5,7-dihydroindolo[1,2-a]quinazolin-10-yl)piperidin-1-yl)methyl)-1H-1,2,3-triazol-1-yl)-3-methylbutanoyl)-4-hydroxy-N-((S)-1-(4-(4-methylthiazol-5-yl)phenyl)ethyl)pyrrolidine-2-carboxamide]",< 100,70 to 90,> 1000,< 50

# Second part, the compound after the results:
DC50 (SMARCA2) [nM],Dmax (SMARCA2) [%],DC50 (SMARCA4) [nM],Dmax (SMARCA4) [%],SMILES
< 100,> 90,< 100,70 to 90,"Cc1ncsc1-c1ccc([C@H](C)NC(=O)[C@@H]2C[C@@H](O)CN2C(=O)[C@@H](c2cc(N3CCC(CN4CCC(c5ccc6c(c5)-n5c(nc(=O)c7c(Cl)cccc75)C6(C)C)CC4)CC3)no2)C(C)C)cc1 [Compound B37, (2S,4R)-1-((R)-2-(3-(4-((4-(4-chloro-7,7-dimethyl-5-oxo-5,7-dihydroindolo[1,2-a]quinazolin-10-yl)piperidin-1-yl)methyl)piperidin-1-yl)isoxazol-5-yl)-3-methylbutanoyl)-4-hydroxy-N-((S)-1-(4-(4-methylthiazol-5-yl)phenyl)ethyl)pyrrolidine-2-carboxamide]"
< 100,> 90,< 100,70 to 90,"Cc1ncsc1-c1ccc([C@H](C)NC(=O)[C@@H]2C[C@@H](O)CN2C(=O)[C@@H](c2cc(OC3CCC(CN4CCC(c5ccc6c(c5)-n5c(nc(=O)c7c(Cl)cccc75)C6(C)C)CC4)CC3)no2)C(C)C)cc1 (stereo partly drawn) [Compound B38, (2S,4R)-1-((R)-2-(3-((4-((4-(4-chloro-7,7-dimethyl-5-oxo-5,7-dihydroindolo[1,2-a]quinazolin-10-yl)piperidin-1-yl)methyl)cyclohexyl)oxy)isoxazol-5-yl)-3-methylbutanoyl)-4-hydroxy-N-((S)-1-(4-(4-methylthiazol-5-yl)phenyl)ethyl)pyrrolidine-2-carboxamide]"
< 100,> 90,< 100,> 90,"Cc1ncsc1-c1ccc(CNC(=O)[C@@H]2C[C@@H](O)CN2C(=O)[C@@H](NC(=O)C2(F)CC2)C(C)(C)C)c(OCCCN2CCC(c3ccc4c(c3)-n3c(nc(=O)c5c(Cl)cccc53)C4(C)C)CC2)c1 [Compound B39, (2S,4R)-N-(2-(3-(4-(4-chloro-7,7-dimethyl-5-oxo-5,7-dihydroindolo[1,2-a]quinazolin-10-yl)piperidin-1-yl)propoxy)-4-(4-methylthiazol-5-yl)benzyl)-1-((S)-2-(1-fluorocyclopropane-1-carboxamido)-3,3-dimethylbutanoyl)-4-hydroxypyrrolidine-2-carboxamide]"
< 100,> 90,100 to 500,< 50,"Cc1ncsc1-c1ccc([C@H](C)NC(=O)[C@@H]2C[C@@H](O)CN2C(=O)[C@@H](NC(=O)[C@H]2CC[C@H](CN3CCC(c4ccc5c(c4)-n4c(nc(=O)c6c(Cl)cccc64)C5(C)C)CC3)CC2)C(C)(C)C)cc1 [Compound B40, (2S,4R)-1-((S)-2-((1r,4S)-4-((4-(4-chloro-7,7-dimethyl-5-oxo-5,7-dihydroindolo[1,2-a]quinazolin-10-yl)piperidin-1-yl)methyl)cyclohexane-1-carboxamido)-3,3-dimethylbutanoyl)-4-hydroxy-N-((S)-1-(4-(4-methylthiazol-5-yl)phenyl)ethyl)pyrrolidine-2-carboxamide]"
< 100,> 90,< 100,70 to 90,"Cc1ncsc1-c1ccc([C@H](C)NC(=O)[C@@H]2C[C@@H](O)CN2C(=O)[C@H](C(C)C)n2cc([C@H]3CC[C@H](CN4CCC(c5ccc6c(c5)-n5c(nc(=O)c7c(Cl)cccc75)C6(C)C)CC4)CC3)nn2)cc1 [Compound B41, (2S,4R)-1-((S)-2-(4-((1r,4S)-4-((4-(4-chloro-7,7-dimethyl-5-oxo-5,7-dihydroindolo[1,2-a]quinazolin-10-yl)piperidin-1-yl)methyl)cyclohexyl)-1H-1,2,3-triazol-1-yl)-3-methylbutanoyl)-4-hydroxy-N-((S)-1-(4-(4-methylthiazol-5-yl)phenyl)ethyl)pyrrolidine-2-carboxamide]"
